Reference: US20120263736A1, “METHOD FOR PREDICTING AND TREATING A STERILE INFLAMMATION AND DISCRIMINATING BETWEEN STERILE AND INFECTIVE INFLAMMATION” (Beth Israel Deaconess Medical Center, Inc., priority 2009, published 2012)

Columns and labels:
Type in all cases: cell-based
PMN = conditions: for PMN chemotaxis to the agent: MTD 100 μg/ml, mtDNA 10 μg/ml, CpG DNA 10 μg/ml, LPS 1 μg/ml
Excerpt: (§1) PMN isolation (Hauser et al., J. Leukoc. Biol. 69:63-68, 2001; Fekete et al., Shock 16:15-20, 2001), cytosolic calcium studies (Hauer et al., J. Leukoc. Biol. 69:63-68, 2001; Hauser et al., J. Trauma 48:592-598, 2000; Tarlowe et al., J. Immunol. 171:2066-2073, 2003; Grynkiewicz et al., J. Biol. Chem. 260:2440-2450, 1985), IL-8 synthesis measurement by ELISA (Zallen et al., J. Trauma 46:42-48, 1999), cell signaling by Western blots (Zhang et al., Life Sci. 77:3068-3077, 2005), transwell chemotaxis (Tarlowe et al., J. Immunol. 171:2066-2073, 2003), and video-microscopy chemotaxis assays (Chen et al., Science 314:1792-1795, 2006) were performed as previously described.
Time-lapse video-microscopic chemotaxis was assayed as described previously (Chen et al., Science 314:1792-1795, 2006). Cells were exposed to a chemoattractant gradient field by slowly releasing MTD (˜100 μg/ml) or fMLF (10 nM) from a micropipette tip placed in proximity to the cells. The migration paths of individual cells were plotted using Adobe Illustrator. […] Experiments were repeated with multiple PMN and MTD isolates.

human PMN [1] = assay: PMN cytosolic calcium ([Ca2+]i) flux
Excerpt: as §1
Study data was assessed for statistical significance using Student's (unpaired) t-test or Analysis of Variance (ANOVA) where appropriate using a SigmaStat program with post-hoc tests chosen by the computer. [Ca^2+]i transients are reported as the mean change from basal [Ca^2+]i in nanomoles per liter (nM/L). Prolonged [Ca^2+]i fluxes are reported as the area under the curve (AUC) of measured change from basal [Ca^2+]i over the observation period (nM·sec). All data are reported as mean±s.e.m. with significance accepted at p<0.05.

human PMN [2] = assay: PMN p38 and p44/42 MAPK phosphorylation (Western blot); conditions: chloroquine 10 μg/mL
Method: (§2) PMN degranulation was assessed by measuring MMP-8 release. Human PMNs were suspended in HBSS with 1.8 mM Ca^2+ at 37° C. for 10 minutes while exposed to MTD, mtDNA, or fMLF at indicated concentrations. […] After stimulation, PMN were placed on ice and centrifuged. Supernatants were then assayed for MMP-8 by Western blot. Residual PMN were lysed to assay for MAPKs.
(§3) PMN activation was assessed by measuring MMP-8/9 degranulation and intracellular MAPK phosphorylation. Human PMN were exposed to mtDNA and nDNA at 1-100 μg/mL, 30 minutes at 37° C. After stimulation, PMN were placed on ice and centrifuged (10,000 g at 4° C. for 2 minutes) to obtain supernatants, which were then assayed for MMP-8 and MMP-9 by Western blot as described below. M-PER (Pierce, Rockford, Ill.) was then used to lyse the PMN cell pellets for determination of total and phosphorylated MAPKs by Western blot as described below. Total protein concentration of the lysates was determined by BCA assay.
(§4) Rat liver homogenates and supernatants from human PMN or human PMN lysates were boiled for 5 minutes in SDS sample buffer. Proteins were separated by SDS-PAGE using a […] polyacrylamide gel. Tris-glycine polyacrylamide gradient gels were purchased from Novex (San Diego, Calif.). Separated proteins were transferred to nitrocellulose membrane (0.45 μm pore size; Bio-Rad, Hercules, Calif.). […]

human PMN [3] = conditions: mtDNA 100 μg/mL; preincubation with chloroquine 10 μg/mL
Method: as §2, §3, §4

For IL-8: chemokine used as chemoattractant, the “PMN chemotaxis to the agent” value (PMN; fMLF 10 nM, IL-8 10 nM) was “shows chemotaxis”.

For `C/C=C/C[C@@H](C)[C@@H](O)[C@H]1C(=O)N[C@@H](CC)C(=O)N(C)CC(=O)N(C)[C@@H](CC(C)C)C(=O)N[C@@H](C(C)C)C(=O)N(C)[C@@H](CC(C)C)C(=O)N[C@@H](C)C(=O)N[C@H](C)C(=O)N(C)[C@@H](CC(C)C)C(=O)N(C)[C@@H](CC(C)C)C(=O)N(C)[C@H](C(C)C)C(=O)N1C` [CsH, Cyclosporin H], the FPR-induced calcium depletion (human PMN [1]; human PMN) was “specifically inhibits”, the “PMN migrating to fMLF, effect of inhibitor” value (PMN; CsH 1 μM, fMLF 10 nM) was “significantly inhibits” and the “PMN chemotaxis to IL-8, effect of inhibitor” value (PMN; CsH, IL-8 10 nM) was “no effects”.

With `CCN(CC)CCCC(C)Nc1ccnc2cc(Cl)ccc12` (stereo not drawn) [chloroquine] the “phosphorylation of p38 MAPK in response to mtDNA, effect of inhibitor” value (human PMN [2]; mtDNA 100 μg/mL) was “not inhibited”, the “p38 MAPK responses to mtDNA, effect of inhibitor” value (human PMN [2]; mtDNA 1 and 5 μg/mL, 30 minutes, 37° C.) was “markedly inhibited” and the “mtDNA-induced release of MMP-8 and -9, effect of inhibitor” value (human PMN [3]) was “suppressed”.

`CSCC[C@H](NC=O)C(=O)N[C@@H](CC(C)C)C(=O)N[C@@H](Cc1ccccc1)C(=O)O` [fMLF, N-formyl-methionyl-leucyl-phenylalanine] was tested, and the “PMN chemotaxis to the agent” value (PMN; fMLF 10 nM, IL-8 10 nM) was “shows chemotaxis”.

In the case of `Nc1ncnc2c1ncn2[C@@H]1O[C@H](COP(=O)(O)OP(=O)(O)OP(=O)(O)O)[C@@H](O)[C@H]1O` [ATP], the “PMN [Ca2+]i mobilization” value (human PMN [1]; 1 μM) is reported as “mobilizes”.
